According to US20260284240A1, “RADIOLABELED COMPOUND FOR USE IN A METHOD OF TREATING CARBONIC ANHYDRASE IX POSITIVE DISEASES” (DEBIOPHARM INTERNATIONAL S.A., priority 2023, published 2026):
Where two headings read alike, the source gives them in different places. Starred links: 1 amine or outer side, 2 acyl side, 3 side chain; linkers in the order of their positions; H or OH if unused. Positions of bridges follow the written chain, without caps; N, C: chain ends. Non-standard residues stand in square brackets, D forms with d. Residues, ends and D or L forms follow the SMILES beside them. *: point of attachment. Phe(3-NHCO(CH2)3SO2NH2) = N[C@@H](Cc1cccc(NC(=O)CCCS(N)(=O)=O)c1)C(=O)O; DOTA = O=C(O)CN1CCN(CC(=O)O)CCN(CC(=O)*)CCN(CC(=O)O)CC1; mXylylene = c1cc(C[*:1])cc(C[*:2])c1; X1 = O=C(CN1CCN([*:1])CC1)[*:2]

Key:
[1] = Toxicokinetics in the dose range finding study in dogs (LC-HRMS plasma); type: in vivo, dog; details: for CL / Vss / t1/2 / Dose-normalized AUClast / AUClast / concentration at […]: dog plasma, i.v. bolus; for CL / Vss / t1/2 / AUClast / concentration at […]: mean n = 2; for Dose-normalized AUClast: AUClast divided by dose in μg/kg; for concentration at […]: iv, read-out: C15 min
Description: The following parameters and endpoints were evaluated: mortality, clinical observations, body weights, food consumption, local reactions, clinical pathology parameters (hematology, coagulation, and clinical chemistry), organ weights, and macroscopic examinations. Both animals were sampled for toxicokinetics (TK) on each dosing occasion (i.e., on day 1, day 5, day 9 and day 13) at: pre-dose, 15 min, 30 min, 1 h, 6 h and 24 h. Blood samples were collected in K2EDTA tubes. Plasma was prepared by centrifugation (2500 g for 10 minutes, +4° C.) within 1 hour after collection, and then frozen within 1 hour after centrifugation and stored at −80° C. […] Chromatographic separation was achieved using a Waters Acquity UPLC system with a Waters Acquity HSS T3 C18 2.1×50 mm, 1.8 μm column. Chromatography was conducted at 50° C. at a flow rate of 0.7 mL/min using a mobile phase consisting of A: acetonitrile, and B: 1% formic acid in water, according to the following linear gradient: 0 to 0.1 min: 90% B; 0.1 to 4.1 min: from 90% B to 74% B; 4.1 to 4.2 min: from 74% B to 5% B; 4.2 to 4.6 min: 5% B; 4.6 to 4.7 min: from 5% B to 90% B; 4.7-5.1 min; 90% B. Detection was performed using a Sciex AP16600 TOF mass spectrometer. Toxicokinetic parameters were estimated from concentration-time data using Phoenix pharmacokinetic software (version 6.4, Certara L.P.). A non-compartmental approach consistent with the bolus intravenous injection was used for parameter estimation. […] Neither in-life parameters nor clinical pathology parameters were affected. In addition, there were no related macroscopic observations noted at necropsy.

[2] = Pharmacokinetics after single i.v. dose in healthy male CD-1 mice; type: in vivo; details: urine, iv, mouse, read-out: Injected dose retrieved from urine unchanged over 8 hours
Description: (§1) The pharmacokinetics of DPI-4452 after a single intravenous (i.v.) dose were investigated in healthy mice. […] Plasma and urine samples collected after dosing were analyzed using a LC-HRMS (liquid chromatography coupled with high-resolution mass spectrometry) assay method. Concentration values were used for pharmacokinetic calculations.
Male CD-1 mice (3 animals per time point and per dose level; overall, 28.2-37.6 g body weight) were administered intravenously in the tail vein in a 2 mL/kg dosing volume. Blood samples were collected in K2EDTA tubes at 5 min, 15 min, 30 min, 1 h, 2 h, 4 h, 8 h, and urine was collected over 8 hours post dose. […]
Plasma and urine samples were analyzed by LC-HRMS after solid phase extraction, using a stable isotope-labeled internal standard (^13C6, ^15N-DPI-4452). […] The lower limit of quantification was 1.00 ng/mL in plasma and urine.
The non-compartmental (NCA) pharmacokinetic analysis of plasma concentration data was conducted using Phoenix 64 WinNonlin (Build 8.3.3.33) software. […] The terminal phase half-life (T1/2) was calculated by least-squares regression analysis of the terminal linear part of the log concentration-time curve. The area under the plasma concentration-time curve (AUC) was determined with the linear trapezoidal rule for increasing values and log trapezoidal rule for decreasing values up to the last measurable concentration.

[3] = Allometric prediction of human PK parameters from mouse and dog PK; details: allometry from mouse and dog
Description: From the variety of CL, Vd and T1/2 determined in the animal studies, the highest and lowest values for each species were retained, and allometry was conducted on all the combinations to obtain a range for each predicted human PK parameter.

[4] = Dose range finding toxicity study by i.v. bolus in male beagle dogs; type: in vivo, dog; details: i.v. bolus up to 800 μg/kg
Description: The following parameters and endpoints were evaluated: mortality, clinical observations, body weights, food consumption, local reactions, clinical pathology parameters (hematology, coagulation, and clinical chemistry), organ weights, and macroscopic examinations. Both animals were sampled for toxicokinetics (TK) on each dosing occasion (i.e., on day 1, day 5, day 9 and day 13) at: pre-dose, 15 min, 30 min, 1 h, 6 h and 24 h. Blood samples were collected in K2EDTA tubes. Plasma was prepared by centrifugation (2500 g for 10 minutes, +4° C.) within 1 hour after collection, and then frozen within 1 hour after centrifugation and stored at −80° C. […] Chromatographic separation was achieved using a Waters Acquity UPLC system with a Waters Acquity HSS T3 C18 2.1×50 mm, 1.8 μm column. Chromatography was conducted at 50° C. at a flow rate of 0.7 mL/min using a mobile phase consisting of A: acetonitrile, and B: 1% formic acid in water, according to the following linear gradient: 0 to 0.1 min: 90% B; 0.1 to 4.1 min: from 90% B to 74% B; 4.1 to 4.2 min: from 74% B to 5% B; 4.2 to 4.6 min: 5% B; 4.6 to 4.7 min: from 5% B to 90% B; 4.7-5.1 min; 90% B. Detection was performed using a Sciex AP16600 TOF mass spectrometer. Toxicokinetic parameters were estimated from concentration-time data using Phoenix pharmacokinetic software (version 6.4, Certara L.P.). […]

[5] = Pharmacokinetics after single i.v. dose in healthy male beagle dogs; type: in vivo; details: dog; for concentration at 24 h / dose excreted at 24 h: iv; for concentration at 24 h: 24 h urine, read-out: Mean amount of unchanged compound excreted in urine; for dose excreted at 24 h: urine, read-out: Dose excreted unchanged in urine
Description: as §1, with “dose was” for “dose were”, “healthy dogs.” for “healthy mice.”
DPI 4452 was formulated in 0.1 M HEPES pH 7.0 at the final concentrations of 0.05 and 0.4 mg/mL for dosing at 0.1 and 0.8 mg/kg, respectively. Male beagle dogs (3 animals per dose level; overall 8.9 to 12.4 kg body weight) were administered intravenously (bolus) in a 2 mL/kg dosing volume. Blood samples were collected in K2EDTA tubes at 5 min, 15 min, 30 min, 1 h, 2 h, 4 h, 6 h, 24 h, and urine was collected over 24 hours post dose. The blood samples were kept on wet ice until plasma separation by centrifugation within 60 min after sampling. The plasma samples were transferred into plastic tubes, frozen and stored at −80° C. until analysis.
Plasma and urine samples were analyzed by LC-HRMS after solid phase extraction, using DPI-4501 as internal standard. Chromatographic separation was run on a Waters Acquity HSS T3 C18 2.1×50 mm, 1.8 μm column. Detection was achieved on a Sciex AP16600 TOF mass spectrometer. The lower limit of quantification was 2.00 ng/mL in urine and plasma.
The NCA pharmacokinetic analysis of plasma concentration data was conducted using Phoenix WinNonlin 6.3 software. Nominal doses were used for all animals. The terminal phase half-life (T1/2) was calculated by least-squares regression analysis of the terminal linear part of the log concentration-time curve. The area under the plasma concentration-time curve (AUC) was determined with the linear trapezoidal rule for increasing values and log trapezoidal rule for decreasing values up to the last measurable concentration.

Question: Which results are given for `CC(C)C[C@@H]1NC(=O)[C@H](Cc2cccc(NC(=O)CCCS(N)(=O)=O)c2)NC(=O)[C@H](CC(=O)O)NC(=O)[C@H]2CCCN2C(=O)[C@H](CCC(=O)O)NC(=O)[C@@H](NC(=O)[C@H](CCC(N)=O)NC(=O)CN2CCN(C(=O)CN3CCN(CC(=O)O)CCN(CC(=O)O)CCN(CC(=O)O)CC3)CC2)CSCc2cccc(c2)CSC[C@@H](C(N)=O)NC(=O)[C@H](CO)NC(=O)[C@H](Cc2c[nH]c3ccccc23)NC(=O)[C@H]([C@@H](C)O)NC1=O` [DPI-4452, DOTA-PPAc-Gln-[Cys(3MeBn)-Glu-pro-Asp-Af3(Cpsu)-Leu-Thr-Trp-Ser-Cys]-NH2] ({DOTA}-[X1]QCE[dP]D[Phe(3-NHCO(CH2)3SO2NH2)]LTWSC-NH2; linker 3-12 via mXylylene)?
Answer: CL ([1]; Day 1, […], 1440 min): 11.7 mL/min/kg; Vss ([1]; Day 1, […], 1440 min): 0.22 L/kg; t1/2 ([1]; Day 1, […], 1440 min): 15 min; Dose-normalized AUClast ([1]; Day 1, […]): 1.36; AUClast ([1]; Day 5, 0.08 mg/kg, 7200 min): 117 ng·h/mL; Dose-normalized AUClast ([1]; Day 5, 0.08 mg/kg): 1.46; AUClast ([1]; Day 9, 0.4 mg/kg, 12960 min): 926 ng·h/mL; CL ([1]; Day 9, 0.4 mg/kg, 12960 min): 6.83 mL/min/kg; Vss ([1]; Day 9, 0.4 mg/kg, 12960 min): 0.24 L/kg; t1/2 ([1]; Day 9, 0.4 mg/kg, 12960 min): 29.4 min; Dose-normalized AUClast ([1]; Day 9, 0.4 mg/kg): 2.31; AUClast ([1]; Day 13, 0.8 mg/kg, 18720 min): 3530 ng·h/mL; CL ([1]; Day 13, 0.8 mg/kg, 18720 min): 3.52 mL/min/kg; Vss ([1]; Day 13, 0.8 mg/kg, 18720 min): 0.32 L/kg; t1/2 ([1]; Day 13, 0.8 mg/kg, 18720 min): 52.8 min; Dose-normalized AUClast ([1]; Day 13, 0.8 mg/kg): 4.42; Dose proportionality of exposure ([1]; dog, 25-800 μg/kg i.v.): exposure increased more than dose-proportionally; concentration at […] ([1]; Day 1, 0.025 mg/kg): 46.8 ng/mL; concentration at […] ([1]; Day 5, 0.08 mg/kg): 156 ng/mL; concentration at […] ([1]; Day 9, 0.4 mg/kg): 880 ng/mL; concentration at […] ([1]; Day 13, 0.8 mg/kg): 2000 ng/mL; dose excreted at 8 h ([2]; i.v. 0.7 mg/kg): 3.57%; dose excreted at 8 h ([2]; i.v. 5.5 mg/kg): 8.89%; Predicted human clearance (CL) [3]: 3.57 to 13.0 mL/min/kg; Predicted human terminal half-life (T1/2) [3]: 10.2 to 88.2 min; Predicted human volume of distribution (Vd) [3]: 189 to 455 mL/kg; Tolerability [4]: well tolerated systemically and locally; Time up to which plasma concentration was quantifiable ([5]; i.v. 0.1 mg/kg): up to 2 h; Time up to which plasma concentration was quantifiable ([5]; i.v. 0.8 mg/kg): ≤ 4 h; concentration at 24 h ([5]; i.v. 0.1 mg/kg): 26.8 ng/mL; concentration at 24 h ([5]; i.v. 0.8 mg/kg): 191 ng/mL; dose excreted at 24 h ([5]; i.v. 0.1 mg/kg): 0.29%; dose excreted at 24 h ([5]; i.v. 0.8 mg/kg): 0.14%
